From patent US20250389737A1, “FACTOR Xa REAGENT” (Instrumentation Laboratory Company, priority 2024, published 2025)
Structures can show the parent of a compound that is named as a salt.

Key:
factor Xa [1] = target: T1, factor Xa (Homo sapiens, UniProt P00742); test: chromogenic assay of the effects of guanidine sulfate and alkylated guanidines on factor Xa activity (FIG. 4); type: biochemical; settings: 6 nkat/mL factor Xa in 20 mM HEPES pH 7.5, 1.5 mM substrate S-2732, mAbs/min at 405 nm, dilution series in water
Description: In this experiment, the effects of guanidine sulfate and the guanidine derivatives: 1-methylguanidine sulfate, 1,1-dimethylguanidine sulfate, 1,1-diethylguanidine, and N-benzyl, N-methylguanidine sulfate were analyzed using a chromogenic assay. A number of dilutions were prepared in water with guanidine or a guanidine derivative of the type described herein. 40 μL of each of the guanidine or guanidine derivatives were mixed for 20 s to 60 s with 40 μL of 6 nkat/mL factor Xa diluted in 20 mM HEPES, pH 7.5 buffer. After an incubation period of 150 s to 180 s, 100 μL of the factor Xa chromogenic substrate S-2732™ (1.5 mM) was added to each of the guanidine and factor Xa mixtures and each mixture was chromogenically measured at 405 nm mAbs/min after a 20 s delay.

factor Xa [2] = target: T1, factor Xa; settings: 6 nkat/mL factor Xa in 20 mM Hepes pH 7.5, 1.5 mM substrate S-2732, 37° C., mAbs/min at 405 nm, concentrations in mM
Description: In this experiment, activity of factor Xa in the presence of guanidine sulfate and its derivatives (e.g., 1-methylguanidine sulfate, 1,1-dimethylguanidine sulfate, 1,1-diethylguanidine, N-benzyl, N-methylguanidine sulfate, 1,1,3,3-tetramethylgunidine and 1,1-dimethylbiguanide HCl) was evaluated using a chromogenic assay. In the experiment, each guanidine derivative was dissolved in deionized (DI) water to a final concentration of 100 mM. A number of such guanidine dilutions were prepared. Guanidine derivative levels in the solutions were tested in triplicate at 37° C. as follows: 40 μL (microliters) of each guanidine derivative level was incubated for 20 seconds(s) to 60 s before 40 μL of 6 nkat/mL factor Xa in 20 mM Hepes pH 7.5 buffer was added to the reaction. After an incubation period of 150 s to 180 s, 100 μL of 1.5 mM factor Xa chromogenic substrate S-2732™ was added to the reaction and milli-absorbance per minute (mAbs/min) at 405 nm (nanometers) was measured after a 20 s delay.

factor Xa [3] = target: T1, factor Xa; test: substrate turnover rates at different factor Xa levels, 1,1-dimethylguanidine compared with NaCl (FIG. 6); type: biochemical; settings: 22 mM 1,1-dimethylguanidine vs 33 mM NaCl, 1.5 mM S-2732, 37° C., 405 nm
Description: Guanidine derivatives modulate factor Xa enzymatic activity in a reaction, as explained previously, thereby slowing-down the reaction. As a result, greater amounts and/or concentrations of factor Xa can be used in a reaction when a guanidine derivative is incorporated into the reaction. In this experiment, factor Xa levels were tested in a reaction in triplicate at 37° C. as follows: 40 μL of factor Xa was incubated for 20 s to 60 s before 40 μL of 100 mM 1,1-dimethylguanidine or 150 mM NaCl in water was added to the reaction. After an incubation period of 150 s to 180 s, 100 μL of 1.5 mM factor Xa chromogenic substrate S-2732™ was added to the reaction and mAbs/min at 405 nm was measured after a 20 s delay. In FIG. 6, substrate turnover rates (e.g., coloring of the substrate) in the presence of 22 mM 1,1-dimethylguanidine 601 were compared to substrate turnover rates in the presence of 33 mM NaCl 602. As evident from FIG. 6, greater amounts and/or concentrations of factor Xa can be added to the reaction in the presence of 1,1-dimethylguanidine to produce the same substrate turnover rates relative to NaCl. […] Greater amounts and/or concentrations of factor Xa facilitate detection of factor Xa inhibitors or reversal of such inhibitors in an assay, as noted previously.

factor Xa [4] = target: T1, factor Xa; test: chromogenic factor Xa activity in a plasma sample containing dimethylguanidine, 9:1 sample to factor Xa ratio (FIG. 7); type: biochemical; settings: 50 mM vs 25 mM dimethylguanidine, 1.5 mM S-2732, 37° C.
Description: In this experiment, 180 μL of a plasma sample containing dimethylguanidine (DMG) and 1.5 mM substrate S-2732™ were mixed with 20 μL of factor Xa (a 9:1 sample to factor Xa ratio). The activity of factor Xa was determined at 37° C. based on chromogenic activity of the substrate. The activity of factor Xa linearly correlates with the factor Xa concentration in the presence of dimethylguanidine. […] Thus, increasing the amount of dimethylguanidine in a sample reduces a rate of the reaction. In some implementations, dimethylguanidine can be added to a reaction at a concentration of up to about 500 mM.

T1 sequence (P00742 235-488 limits assumed): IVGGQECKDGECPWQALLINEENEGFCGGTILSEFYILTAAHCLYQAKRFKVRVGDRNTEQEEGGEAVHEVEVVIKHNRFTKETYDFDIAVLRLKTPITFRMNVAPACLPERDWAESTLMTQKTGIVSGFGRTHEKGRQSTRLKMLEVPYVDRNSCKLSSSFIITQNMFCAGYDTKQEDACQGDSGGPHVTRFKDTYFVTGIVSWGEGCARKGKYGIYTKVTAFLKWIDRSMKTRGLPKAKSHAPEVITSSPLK
T1 sequence (P00742 41-179 partner limits assumed): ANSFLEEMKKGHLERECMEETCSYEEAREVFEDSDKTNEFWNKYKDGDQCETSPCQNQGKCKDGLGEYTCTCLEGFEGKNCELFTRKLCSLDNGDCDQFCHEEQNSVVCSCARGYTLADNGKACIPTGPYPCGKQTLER

Row | Compound | extent of factor Xa inhibition (factor Xa [1]) | factor Xa activity plotted against guanidine derivative or NaCl concentration (factor Xa [2]) | other results
1 | N=C(N)N [guanidine sulfate] | least amount of reduction in factor Xa inhibition | modulate factor Xa dose-dependently, although less than 1-methylated guanidine sulfate | 
2 | CCN(CC)C(=N)N.O=S(=O)(O)O [1,1-diethylguanidine sulfate] | largest extent of factor Xa inhibition |  | 
3 | CN(C)C(=N)N.O=S(=O)(O)O [1,1-dimethylguanidine sulfate] | largest extent of factor Xa inhibition |  | 
4 | CN(C)C(=N)N [1,1-dimethylguanidine] |  |  | substrate turnover rates (reaction rate) relative to NaCl (factor Xa [3]): slowed-down; rate of the factor Xa reaction (chromogenic activity) (factor Xa [4]): slows reaction of the factor Xa in a sample greater than 25 mM of dimethylguanidine
5 | CNC(=N)N [1-methylguanidine sulfate] | reduced factor Xa inhibition as compared to the factor Xa inhibition of mixtures containing dialkylated guanidine derivatives | modulates factor Xa dose-dependently | 
6 | CN(C)C(=N)NC(=N)N [1,1-dimethyl-biguanide, reference compound] |  | modulate factor Xa dose-dependently, although less than 1-methylated guanidine sulfate | 
7 | CN(Cc1ccccc1)C(=N)N.O=S(=O)(O)O [N-benzyl N-methylguanidine sulfate] | reduced factor Xa inhibition as compared to the factor Xa inhibition of mixtures containing dialkylated guanidine derivatives |  | 
8 | [Cl-].[Na+] [NaCl, reference compound] |  | activates factor Xa activity | 
